Results: ChEMBL document CHEMBL1201862, “PubChem BioAssay data set” (2004)
One block for each molecule: values may come before it. Active and inactive are the calls of the source.

Legend:
[1] = target: T1, Intestinal-type alkaline phosphatase (Homo sapiens, UniProt P09923); experiment: activation of human intestinal alkaline phosphatase – biochemical, luminescent, uHTS hits, set 2, dose response (AID 488817); assay type: functional;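 note: potency of activators that raise enzyme activity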
[2] = target: Intestinal-type alkaline phosphatase (Mus musculus, UniProt P24822); experiment: PubChem AID 488875; assay type: functional
Chain of Intestinal-type alkaline phosphatase (Mus musculus, UniProt P24822) (P24822 whole entry): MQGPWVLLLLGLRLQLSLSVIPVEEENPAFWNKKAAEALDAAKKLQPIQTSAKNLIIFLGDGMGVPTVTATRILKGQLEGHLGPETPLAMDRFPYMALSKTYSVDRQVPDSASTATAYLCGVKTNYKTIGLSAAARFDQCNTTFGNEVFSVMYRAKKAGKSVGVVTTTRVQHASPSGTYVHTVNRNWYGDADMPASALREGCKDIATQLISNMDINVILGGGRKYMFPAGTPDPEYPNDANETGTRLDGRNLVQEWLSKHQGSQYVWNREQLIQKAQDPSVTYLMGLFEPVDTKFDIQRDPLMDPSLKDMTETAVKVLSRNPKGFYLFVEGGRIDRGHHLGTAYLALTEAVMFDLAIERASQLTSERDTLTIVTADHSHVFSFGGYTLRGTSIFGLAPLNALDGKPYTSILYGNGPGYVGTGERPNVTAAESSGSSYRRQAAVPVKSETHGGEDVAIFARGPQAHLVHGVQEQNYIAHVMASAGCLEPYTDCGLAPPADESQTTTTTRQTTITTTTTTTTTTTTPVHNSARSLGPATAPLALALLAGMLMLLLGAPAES

[3] = target: T1, Intestinal-type alkaline phosphatase; experiment: human intestinal alkaline phosphatase activators, dose response, biochemical, luminescence, uHTS hits (AID 463120); assay type: functional
[4] = target: T2, Alkaline phosphatase, tissue-nonspecific isozyme (Homo sapiens, UniProt P05186); experiment: activation of tissue-nonspecific alkaline phosphatase – biochemical, TNAP isozyme, human IAP uHTS hits, selectivity assay for human IAP activator project, dose response (AID 488886); assay type: functional;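 note: potency of compounds raising TNAP activity as a selectivity check on IAP activators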
T2 sequence (P05186 whole entry): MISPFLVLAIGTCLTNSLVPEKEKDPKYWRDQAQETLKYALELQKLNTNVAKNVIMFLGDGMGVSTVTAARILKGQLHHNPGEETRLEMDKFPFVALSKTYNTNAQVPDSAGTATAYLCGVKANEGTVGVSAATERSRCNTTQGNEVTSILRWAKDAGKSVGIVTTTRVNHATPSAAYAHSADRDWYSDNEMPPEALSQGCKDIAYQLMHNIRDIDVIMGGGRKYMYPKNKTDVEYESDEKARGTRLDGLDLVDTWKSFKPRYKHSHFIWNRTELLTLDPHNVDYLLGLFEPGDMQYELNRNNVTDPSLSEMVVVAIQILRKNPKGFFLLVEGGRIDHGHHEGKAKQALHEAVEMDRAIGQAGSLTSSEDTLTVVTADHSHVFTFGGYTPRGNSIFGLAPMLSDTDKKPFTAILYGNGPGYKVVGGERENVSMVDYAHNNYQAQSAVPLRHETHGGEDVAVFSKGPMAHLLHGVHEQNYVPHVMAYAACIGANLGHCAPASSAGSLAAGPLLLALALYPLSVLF

HEK293 [5] = experiment: cells; conditions: Homo sapiens
HEK293 [6] = experiment: cells; conditions: Homo sapiens; remark: listed apart in the source
[7] = target: T3, Voltage-gated N-type calcium channel alpha-1B subunit/Amyloid beta A4 precursor protein-binding family A member 1 (Homo sapiens, UniProt Q00975+Q02410); assay type: protein assay
T3 sequence (Q00975 whole entry): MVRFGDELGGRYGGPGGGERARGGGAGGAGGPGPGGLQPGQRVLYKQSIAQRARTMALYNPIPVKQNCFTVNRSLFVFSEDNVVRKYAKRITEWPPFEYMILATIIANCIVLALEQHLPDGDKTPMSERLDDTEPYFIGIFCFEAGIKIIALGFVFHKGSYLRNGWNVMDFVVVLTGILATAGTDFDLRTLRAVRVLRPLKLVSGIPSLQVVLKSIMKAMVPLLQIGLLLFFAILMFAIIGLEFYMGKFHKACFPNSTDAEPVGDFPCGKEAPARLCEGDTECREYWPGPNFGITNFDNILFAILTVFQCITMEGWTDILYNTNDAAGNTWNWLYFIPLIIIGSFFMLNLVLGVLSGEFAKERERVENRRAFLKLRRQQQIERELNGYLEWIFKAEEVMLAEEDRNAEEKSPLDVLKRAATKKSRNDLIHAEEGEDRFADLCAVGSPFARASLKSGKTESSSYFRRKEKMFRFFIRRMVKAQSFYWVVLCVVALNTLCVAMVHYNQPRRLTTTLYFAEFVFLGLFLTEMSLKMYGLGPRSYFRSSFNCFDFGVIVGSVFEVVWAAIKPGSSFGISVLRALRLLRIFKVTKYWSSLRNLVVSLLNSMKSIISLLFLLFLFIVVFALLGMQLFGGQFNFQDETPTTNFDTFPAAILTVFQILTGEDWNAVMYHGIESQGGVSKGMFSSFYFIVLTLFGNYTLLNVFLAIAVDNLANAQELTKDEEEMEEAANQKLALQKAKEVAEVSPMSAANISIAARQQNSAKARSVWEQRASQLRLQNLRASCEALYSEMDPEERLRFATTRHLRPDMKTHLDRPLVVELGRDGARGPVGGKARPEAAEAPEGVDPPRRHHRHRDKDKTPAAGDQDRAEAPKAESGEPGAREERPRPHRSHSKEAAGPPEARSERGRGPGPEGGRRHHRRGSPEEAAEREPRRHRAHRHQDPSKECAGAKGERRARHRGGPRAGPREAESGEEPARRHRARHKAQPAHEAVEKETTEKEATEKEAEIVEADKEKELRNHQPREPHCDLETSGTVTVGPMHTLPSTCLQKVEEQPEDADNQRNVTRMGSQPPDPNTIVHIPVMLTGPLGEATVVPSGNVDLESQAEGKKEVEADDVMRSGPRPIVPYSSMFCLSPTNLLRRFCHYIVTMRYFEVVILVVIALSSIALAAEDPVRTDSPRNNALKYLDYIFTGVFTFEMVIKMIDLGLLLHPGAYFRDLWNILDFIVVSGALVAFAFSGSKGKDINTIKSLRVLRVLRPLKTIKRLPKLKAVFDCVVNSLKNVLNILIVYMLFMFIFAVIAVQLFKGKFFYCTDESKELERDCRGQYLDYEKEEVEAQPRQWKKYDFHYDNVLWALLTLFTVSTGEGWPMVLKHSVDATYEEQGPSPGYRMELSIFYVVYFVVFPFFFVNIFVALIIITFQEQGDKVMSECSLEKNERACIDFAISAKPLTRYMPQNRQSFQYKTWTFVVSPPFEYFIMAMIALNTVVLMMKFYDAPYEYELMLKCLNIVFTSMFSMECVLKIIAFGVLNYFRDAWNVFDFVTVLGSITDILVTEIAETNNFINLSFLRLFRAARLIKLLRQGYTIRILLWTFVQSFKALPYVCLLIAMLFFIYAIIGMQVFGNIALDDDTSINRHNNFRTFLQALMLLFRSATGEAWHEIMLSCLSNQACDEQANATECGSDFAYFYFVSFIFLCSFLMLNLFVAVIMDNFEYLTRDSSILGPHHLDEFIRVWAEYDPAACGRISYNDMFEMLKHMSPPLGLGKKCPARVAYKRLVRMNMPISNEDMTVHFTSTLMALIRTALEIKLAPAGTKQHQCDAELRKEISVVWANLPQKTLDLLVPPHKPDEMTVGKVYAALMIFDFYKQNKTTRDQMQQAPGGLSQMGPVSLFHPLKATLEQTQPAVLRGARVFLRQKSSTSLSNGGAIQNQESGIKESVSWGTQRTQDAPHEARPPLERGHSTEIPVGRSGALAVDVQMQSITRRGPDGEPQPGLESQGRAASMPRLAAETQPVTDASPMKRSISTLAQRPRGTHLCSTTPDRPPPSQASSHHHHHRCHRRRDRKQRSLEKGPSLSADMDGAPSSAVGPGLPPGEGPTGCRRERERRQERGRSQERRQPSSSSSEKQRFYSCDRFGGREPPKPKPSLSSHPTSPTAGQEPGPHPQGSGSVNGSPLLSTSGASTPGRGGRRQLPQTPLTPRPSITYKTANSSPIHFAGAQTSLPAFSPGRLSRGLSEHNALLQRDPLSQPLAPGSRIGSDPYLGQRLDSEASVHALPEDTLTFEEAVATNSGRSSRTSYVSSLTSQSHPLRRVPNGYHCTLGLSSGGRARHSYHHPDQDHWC
T3 sequence (Q02410 whole entry): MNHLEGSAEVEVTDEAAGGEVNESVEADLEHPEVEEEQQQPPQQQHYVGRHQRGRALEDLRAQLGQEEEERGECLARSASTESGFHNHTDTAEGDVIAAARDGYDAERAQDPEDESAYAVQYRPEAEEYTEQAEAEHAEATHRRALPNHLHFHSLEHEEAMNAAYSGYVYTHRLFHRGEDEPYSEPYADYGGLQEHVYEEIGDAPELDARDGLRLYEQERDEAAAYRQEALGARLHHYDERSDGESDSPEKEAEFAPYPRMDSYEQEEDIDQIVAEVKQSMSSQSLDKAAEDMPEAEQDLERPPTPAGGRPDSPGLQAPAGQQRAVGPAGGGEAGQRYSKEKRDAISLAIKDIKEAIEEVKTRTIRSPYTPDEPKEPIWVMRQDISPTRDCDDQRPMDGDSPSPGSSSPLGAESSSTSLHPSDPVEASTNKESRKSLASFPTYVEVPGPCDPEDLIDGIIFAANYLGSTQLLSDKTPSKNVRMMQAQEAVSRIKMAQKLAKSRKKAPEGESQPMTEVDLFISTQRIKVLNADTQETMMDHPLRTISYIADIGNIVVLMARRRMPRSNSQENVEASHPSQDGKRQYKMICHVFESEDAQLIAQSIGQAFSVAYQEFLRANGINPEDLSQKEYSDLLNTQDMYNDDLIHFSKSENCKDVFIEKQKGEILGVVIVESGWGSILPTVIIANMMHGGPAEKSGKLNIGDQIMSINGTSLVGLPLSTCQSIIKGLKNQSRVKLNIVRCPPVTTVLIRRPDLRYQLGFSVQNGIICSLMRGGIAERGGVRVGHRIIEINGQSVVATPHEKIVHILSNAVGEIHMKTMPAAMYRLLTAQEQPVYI

[8] = target: T4, Apoptotic protease-activating factor 1 (Homo sapiens, UniProt O14727); experiment: activation of Apaf-1 mediated apoptosis – fluorescent, uHTS hits, dose response (AID 588554); assay type: functional
T4 sequence (O14727 whole entry): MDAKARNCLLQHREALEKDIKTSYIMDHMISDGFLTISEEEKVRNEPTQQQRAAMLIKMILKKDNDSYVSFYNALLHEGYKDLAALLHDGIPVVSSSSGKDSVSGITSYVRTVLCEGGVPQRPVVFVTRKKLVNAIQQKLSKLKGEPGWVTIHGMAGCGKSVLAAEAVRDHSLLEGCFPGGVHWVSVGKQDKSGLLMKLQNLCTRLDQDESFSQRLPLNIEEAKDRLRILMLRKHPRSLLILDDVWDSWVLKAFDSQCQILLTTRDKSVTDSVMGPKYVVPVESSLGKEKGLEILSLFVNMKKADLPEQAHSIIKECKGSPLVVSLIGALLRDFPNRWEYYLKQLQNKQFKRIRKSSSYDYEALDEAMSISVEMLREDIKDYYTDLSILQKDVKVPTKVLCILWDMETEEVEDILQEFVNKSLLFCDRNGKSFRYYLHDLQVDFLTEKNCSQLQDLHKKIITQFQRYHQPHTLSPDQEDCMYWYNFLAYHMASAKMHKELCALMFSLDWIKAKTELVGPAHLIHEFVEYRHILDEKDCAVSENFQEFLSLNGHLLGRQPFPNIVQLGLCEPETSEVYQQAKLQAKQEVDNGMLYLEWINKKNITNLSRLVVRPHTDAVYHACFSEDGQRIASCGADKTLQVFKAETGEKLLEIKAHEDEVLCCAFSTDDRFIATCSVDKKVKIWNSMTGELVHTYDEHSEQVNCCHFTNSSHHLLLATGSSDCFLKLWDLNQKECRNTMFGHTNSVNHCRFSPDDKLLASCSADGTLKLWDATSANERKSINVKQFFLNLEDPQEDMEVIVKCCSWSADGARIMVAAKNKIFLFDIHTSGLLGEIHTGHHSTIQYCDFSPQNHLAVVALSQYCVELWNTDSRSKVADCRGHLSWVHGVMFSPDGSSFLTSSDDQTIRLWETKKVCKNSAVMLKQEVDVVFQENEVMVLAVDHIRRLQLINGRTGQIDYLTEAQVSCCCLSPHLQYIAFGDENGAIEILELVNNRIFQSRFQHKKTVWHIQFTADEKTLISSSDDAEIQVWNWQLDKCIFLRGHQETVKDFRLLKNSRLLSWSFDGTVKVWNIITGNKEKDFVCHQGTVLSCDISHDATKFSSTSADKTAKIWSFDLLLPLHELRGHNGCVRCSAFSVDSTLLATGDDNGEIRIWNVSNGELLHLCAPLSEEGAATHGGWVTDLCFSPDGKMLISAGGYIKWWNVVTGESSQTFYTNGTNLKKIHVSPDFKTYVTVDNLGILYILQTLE

[9] = target: T3, Voltage-gated N-type calcium channel alpha-1B subunit/Amyloid beta A4 precursor protein-binding family A member 1; assay type: protein assay; remark: listed apart in the source
CAAX prenyl protease 1 = CAAX prenyl protease 1 (Saccharomyces cerevisiae S288c, UniProt P47154); experiment: yeast CAAX protease Ste24 inhibition – biochemical, S. cerevisiae, plate reader, cherry-pick, dose response (AID 488815)
Chain of CAAX prenyl protease 1 (P47154 whole entry): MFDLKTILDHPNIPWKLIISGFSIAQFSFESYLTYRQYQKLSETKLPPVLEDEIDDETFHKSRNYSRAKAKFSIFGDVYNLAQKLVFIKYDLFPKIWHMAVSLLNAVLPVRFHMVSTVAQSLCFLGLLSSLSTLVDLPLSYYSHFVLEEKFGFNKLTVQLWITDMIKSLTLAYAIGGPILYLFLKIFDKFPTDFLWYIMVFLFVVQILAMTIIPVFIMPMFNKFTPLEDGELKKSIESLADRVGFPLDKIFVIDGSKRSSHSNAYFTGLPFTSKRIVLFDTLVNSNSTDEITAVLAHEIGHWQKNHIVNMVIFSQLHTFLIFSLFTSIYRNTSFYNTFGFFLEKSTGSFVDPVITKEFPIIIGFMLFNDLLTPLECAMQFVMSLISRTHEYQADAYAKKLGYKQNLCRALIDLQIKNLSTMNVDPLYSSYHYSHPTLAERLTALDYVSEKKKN

CAAX prenyl protease 2 = target: T5, CAAX prenyl protease 2 (Homo sapiens, UniProt Q9Y256); experiment: inhibition of Ras-converting CAAX protease Rce1 – biochemical, yeast membranes, quenched-peptide fluorescence, cherry-pick, dose response (AID 588849)
T5 sequence (Q9Y256 whole entry): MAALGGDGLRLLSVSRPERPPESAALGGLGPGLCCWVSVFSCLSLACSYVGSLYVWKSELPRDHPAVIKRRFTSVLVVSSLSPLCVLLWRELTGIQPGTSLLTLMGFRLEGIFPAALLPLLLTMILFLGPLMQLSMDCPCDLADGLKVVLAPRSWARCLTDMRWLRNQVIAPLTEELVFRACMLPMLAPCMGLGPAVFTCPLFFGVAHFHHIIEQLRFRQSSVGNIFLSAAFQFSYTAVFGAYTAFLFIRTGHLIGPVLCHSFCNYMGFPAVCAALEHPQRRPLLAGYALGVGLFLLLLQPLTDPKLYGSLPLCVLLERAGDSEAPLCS

Trypsin = Trypsin (Sus scrofa, UniProt P00761); experiment: trypsin protease activity blockade – biochemical, quenched peptide fluorescence, cherry-pick, selectivity assay for Rce1 protease inhibitor project, dose response (AID 488789)
Chain of Trypsin (P00761 whole entry): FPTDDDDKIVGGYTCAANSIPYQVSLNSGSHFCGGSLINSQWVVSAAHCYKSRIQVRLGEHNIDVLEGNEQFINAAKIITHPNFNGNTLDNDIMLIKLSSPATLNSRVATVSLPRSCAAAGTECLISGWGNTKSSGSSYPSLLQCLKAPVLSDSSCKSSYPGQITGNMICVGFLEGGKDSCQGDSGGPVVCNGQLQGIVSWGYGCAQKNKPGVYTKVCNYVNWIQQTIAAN

[10] = Luminescence Cell-Based Dose Response Follow up to Identify Inhibitors of Platelet Dense Granule Release. [Related pubchem assays (depositor defined):AID1663, AID1678, AID1889, AID2519]; assay type: functional
Candida albicans = experiment: Candida growth inhibition combined with fluconazole – CaCi-2 strain, Alamar Blue, dry powder, set 3, dose response (AID 488907); assay type: functional, organism-based
cells [11] = assay type: functional, cell-based
[12] = target: Lysine-specific demethylase 4A (Homo sapiens, UniProt O75164); experiment: inhibition of JMJD2A H3K9me3 demethylation – biochemical, DELFIA europium, cherry-picked samples, selectivity assay for GASC-1 inhibitor project, dose response (AID 488840)
[13] = target: T6, Heat shock factor protein 1 (Mus musculus, UniProt P38532); experiment: enhancement of HSF1-driven luciferase signal – cell-based, NIH3T3, luminescence, dose retest, confirmation (AID 435004); assay type: functional;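 note: stress induced by proteasome inhibitor MG132 added 30 min after compound; luciferase reporter driven by HSF1 response element in NIH3T3 cells; actives raise luminescence as potentiators of the MG132 stress response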
T6 sequence (P38532 whole entry): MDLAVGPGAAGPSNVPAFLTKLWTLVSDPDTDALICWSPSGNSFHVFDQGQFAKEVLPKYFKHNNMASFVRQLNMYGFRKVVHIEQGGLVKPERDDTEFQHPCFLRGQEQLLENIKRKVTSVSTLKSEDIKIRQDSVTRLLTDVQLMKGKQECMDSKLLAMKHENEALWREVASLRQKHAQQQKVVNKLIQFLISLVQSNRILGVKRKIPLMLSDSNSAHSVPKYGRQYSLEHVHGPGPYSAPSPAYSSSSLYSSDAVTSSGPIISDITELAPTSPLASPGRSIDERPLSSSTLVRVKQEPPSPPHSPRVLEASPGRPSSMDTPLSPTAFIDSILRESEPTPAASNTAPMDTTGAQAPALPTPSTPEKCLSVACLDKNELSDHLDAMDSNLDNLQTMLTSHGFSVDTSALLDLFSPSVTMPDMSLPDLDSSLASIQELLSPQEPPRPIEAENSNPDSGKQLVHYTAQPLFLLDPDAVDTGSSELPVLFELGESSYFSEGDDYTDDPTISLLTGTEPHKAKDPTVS

cells [14] = assay type: functional, cell-based; remark: listed apart in the source
[15] = Luminescence Cell-Based Dose Retest to Confirm Inhibitors of Cancer Stem Cells. [Related pubchem assays (depositor defined):AID2717, AID2721]; assay type: functional; conditions: Homo sapiens
INS1 = experiment: INS-1E survival protection against cytokine death – cell-based, luminescence, retest, dose response (AID 449756); assay type: functional; conditions: Rattus norvegicus;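 note: cell death triggered by IL-1 beta plus TNF-alpha plus IFN-gamma mixture; protective hits raise ATP signal compared with cytokine alone wells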
[16] = target: Lysine-specific demethylase 4C (Homo sapiens, UniProt Q9H3R0); experiment: inhibition of JMJD2C H3K9me3 demethylation – biochemical, DELFIA europium, cherry-picked samples, dose response (AID 488835); assay type: functional
Hexokinase HKDC1 = target: T7, Hexokinase HKDC1 (Homo sapiens, UniProt Q2TB90); experiment: inhibition of HKDC1 glucose phosphorylation – biochemical, W721R variant, dose response (AID 504729); assay type: functional
T7 sequence (Q2TB90 whole entry): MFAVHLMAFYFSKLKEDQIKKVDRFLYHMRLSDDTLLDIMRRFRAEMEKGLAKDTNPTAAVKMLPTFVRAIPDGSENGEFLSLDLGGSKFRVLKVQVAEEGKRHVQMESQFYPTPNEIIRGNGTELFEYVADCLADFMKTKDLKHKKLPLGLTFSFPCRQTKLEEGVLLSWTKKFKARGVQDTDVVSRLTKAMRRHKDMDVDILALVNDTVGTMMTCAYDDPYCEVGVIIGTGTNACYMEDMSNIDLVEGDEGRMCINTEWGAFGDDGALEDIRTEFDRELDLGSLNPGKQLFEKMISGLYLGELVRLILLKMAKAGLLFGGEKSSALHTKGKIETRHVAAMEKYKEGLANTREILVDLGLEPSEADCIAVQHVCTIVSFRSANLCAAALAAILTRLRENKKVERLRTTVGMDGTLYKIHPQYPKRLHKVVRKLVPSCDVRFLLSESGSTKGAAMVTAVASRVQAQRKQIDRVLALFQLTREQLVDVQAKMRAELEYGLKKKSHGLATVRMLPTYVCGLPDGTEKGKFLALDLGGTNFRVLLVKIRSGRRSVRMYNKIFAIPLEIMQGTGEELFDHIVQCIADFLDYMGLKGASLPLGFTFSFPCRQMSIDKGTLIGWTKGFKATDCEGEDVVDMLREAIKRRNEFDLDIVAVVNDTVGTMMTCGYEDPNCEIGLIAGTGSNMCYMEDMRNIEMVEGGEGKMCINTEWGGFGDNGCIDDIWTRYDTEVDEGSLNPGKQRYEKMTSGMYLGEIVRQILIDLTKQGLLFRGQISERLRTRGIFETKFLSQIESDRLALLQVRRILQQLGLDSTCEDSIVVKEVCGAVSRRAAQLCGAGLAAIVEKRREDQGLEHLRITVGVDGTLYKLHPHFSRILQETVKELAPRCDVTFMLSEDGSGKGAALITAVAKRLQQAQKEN

T1 sequence (P09923 whole entry): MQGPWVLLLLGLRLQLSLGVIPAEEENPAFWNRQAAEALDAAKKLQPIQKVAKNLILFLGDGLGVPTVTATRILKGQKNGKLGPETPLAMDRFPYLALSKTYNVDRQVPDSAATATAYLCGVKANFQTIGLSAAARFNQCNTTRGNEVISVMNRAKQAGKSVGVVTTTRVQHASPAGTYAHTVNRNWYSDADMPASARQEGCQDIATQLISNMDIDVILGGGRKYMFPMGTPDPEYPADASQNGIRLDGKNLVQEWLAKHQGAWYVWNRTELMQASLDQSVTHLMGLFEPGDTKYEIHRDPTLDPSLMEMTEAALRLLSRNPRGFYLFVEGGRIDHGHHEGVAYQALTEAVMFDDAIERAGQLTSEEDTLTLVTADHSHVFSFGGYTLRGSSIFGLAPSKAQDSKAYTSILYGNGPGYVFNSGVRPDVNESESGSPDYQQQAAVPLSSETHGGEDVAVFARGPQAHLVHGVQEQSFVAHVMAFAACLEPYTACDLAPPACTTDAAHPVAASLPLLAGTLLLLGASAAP

EC50 [1]: 46.9 µM (active)
EC50 [2]: 33.9 µM (active)
EC50 [3]: 61.3 µM (active)
EC50 [4]: 63.1 µM (active)
SMILES: COc1cc(NC(=O)NCC2CCN(Cc3ccccc3Cl)CC2)cc(OC)c1OC

SMILES: COc1cc2c(cc1OC)-c1cc(OCc3cccnc3)nc(=O)n1CC2
EC50 (HEK293 [5]): > 59.6 µM (inactive)
EC50 (HEK293 [6]): > 59.6 µM (inactive)

IC50 [7]: > 50 µM (inactive)
EC50 [8]: 7.82 µM (active)
IC50 [9]: 18.6 µM (active)
SMILES: Cc1cc(C)c2c(=O)c(/C=C3\NC(=S)NC3=O)coc2c1

AC50 (CAAX prenyl protease 1): 8.08 µM (active)
AC50 (CAAX prenyl protease 2): 22.2 µM (active)
AC50 (Trypsin): 27.2 µM (active)
SMILES: COc1ccc2c(c1)cc(C(=O)N[C@@H](CCSC)C(=O)N1CCC(C(=O)O)CC1)n2C

SMILES: CCCC(=O)Nc1cccc(NC(=O)Cc2ccc(Cl)cc2)c1
EC50 [10]: 500 µM (inactive)

SMILES: Cc1ccnc(N2CCN(C(=O)c3ccc(Cl)cc3)CC2)c1
AC50 (Candida albicans): 0.0873 µM (active)

SMILES: Oc1ccc(/C=N/Nc2ncc(Br)cn2)c(O)c1
EC50 (cells [11]): 41.1 µM (active)
AC50 [12]: > 60 µM (inactive)
EC50 [13]: 18.6 µM (active)
EC50 (cells [14]): > 350 µM (not active)
AC50 [15]: 4.55 µM (active)
AC50 (INS1): 1.54 µM (active)
AC50 [16]: 0.829 µM (active)
IC50 (Hexokinase HKDC1): 1.68 µM (active)
